From patent publication EP0646579A1, “Ketonic indane derivatives and heterocyclic analysis and their use in therapy” (LABORATOIRE INNOTHERA Société Anonyme, priority 1993, dated 1995)

Experiments:
[1] = tested on: hyperperméabilité vasculaire induite par le zymosan; test: Vascular hyperpermeability induced by zymosan, in vivo; conditions: oral administration of 1-20 mg/kg
Source text: La perméabilité vasculaire est étudiée in vivo et in vitro par la mesure de l'extravasation d'albumine ou de colorant liant l'albumine (Bleu Evans). In vivo, l'hyperperméabilité est induite par l'injection d'une solution d'histamine, de bradykinine ou de zymosan. Les modèles in vitro permettent de réaliser des hyperpressions (sur un territoire vasculaire isolé) et/ou des réactions vasculaires inflammatoires.
A titre illustratif, les composés des exemples 1, 2, 3, 5 inhibent l'hyperperméabilité vasculaire induite par le zymosan après administration orale de 1-20 mg/kg.

veines saphènes de lapin = test: Contraction of isolated rabbit saphenous veins produced by KCl (40 mM); type: cell-based; conditions: for augmentation des contractions des veines saphènes de lapin produites par le KCl: KCl 40 mM, compounds 10 nM à 30 mM; for EC50: increase of KCl (40 mM) contraction of rabbit saphenous veins, read-out: DE₅₀
Source text: L'effet contractile est mesuré in vitro : • par la force de contraction développée par des anneaux vasculaires quiescents ou stimulés (soit électriquement soit par des agents physiologiques) et maintenus dans des conditions isométriques, • par la pression développée par des réseaux vasculaires perfusés à débit constant.
Les composés de formule (I) et leurs sels éventuels augmentent la contraction des veines saphènes animales produite par la noradrénaline et la dépolarisation (solution hyperpotassique) sans affecter, dans la majorité des cas, les réponses contractiles artérielles. A titre illustratif, les composés des exemples 1, 2, 3, 5 (10 nM à 30 mM) augmentent de plus de 40 % (DE₅₀ + 0,3 microM) les contractions des veines saphènes de lapin produites par le KCl (40 mM).

[2] = Free radical scavenging, DPPH model; type: biochemical; conditions: DPPH as stable free radical, in vitro
Source text: L'effet "piégeur de radicaux libres" global est étudié in vitro par un modèle utilisant le 1,1-diphényl-2-picrylhydrazyl (DPPH) comme radical libre stable, méthode dérivée de celle décrite par Lamaison et col., Plantes Médic. et Phytothérapie, XXII, 1988, 231-234.

rat = test: Carrageenan-induced pleurisy in the rat; type: in vivo; conditions: 5 mg/kg i.p. twice; for migration leucocytaire dans la cavité pleurale: 6 hours after carrageenan injection; for oedème: 6 hours after carrageenan injection into the pleural cavity
Experimental: L'activité antiinflammatoire est démontrée par la mesure de l'inhibition de l'oedème et de la migration leucocytaire après induction d'une pleurésie chez le rat par injection de carragénine dans la cavité pleurale (Almeida et col., J. Pharmacol. Exp. Therap., 1980, 214 : 74).
Le composé des exemples 31, 3, 5 administrés deux fois en i.p. à la dose de 5 mg/kg inhibent l'oedème et la migration leucocytaire dans la cavité pleurale, 6 heures après injection de carragénine dans le modèle de la pleurésie chez le rat.

Which results are given for O=c1c(=NNc2nc3ccccc3s2)c(=O)c2ccccc12 [exemple 1, 2-(Benzothiazol-2-yl-hydrazono)-2.3-dihydro-1.3-dioxo-1H-indene]?
hyperperméabilité vasculaire induite par le zymosan [1]: inhibent; augmentation des contractions des veines saphènes de lapin produites par le KCl (veines saphènes de lapin): > 40%; EC50 (veines saphènes de lapin): ~300 nM

What does the source list for O=c1c(=NNc2nc3ccccc3o2)c(=O)c2ccccc12 [exemple 2, 2-(Benzoxazol-2-yl-hydrazono)-2.3-dihydro-1.3-dioxo-1H-indene]?
hyperperméabilité vasculaire induite par le zymosan [1]: inhibent; effet antiradicalaire [2]: effet antiradicalaire; augmentation des contractions des veines saphènes de lapin produites par le KCl (veines saphènes de lapin): > 40%; EC50 (veines saphènes de lapin): ~300 nM

For O=c1c(=NNc2nc3ccccc3[nH]2)c(=O)c2ccccc12 [exemple 3, 2-(Benzimidazol-2-yl-hydrazono)-2.3-dihydro-1.3-dioxo-1H-indene], which “hyperperméabilité vasculaire induite par le zymosan” value [1] is on record?
Its value is “inhibent”.

And the “migration leucocytaire dans la cavité pleurale” value (rat)?
The value was “inhibent”.

What about the oedème (rat) of the same compound?
Its oedème is “inhibent”.

What about the “augmentation des contractions des veines saphènes de lapin produites par le KCl” value (veines saphènes de lapin) of the same compound?
The value was over 40%.

And the EC50 (veines saphènes de lapin)?
Its EC50 is about 300 nM.

For O=c1c(=NNc2nc3cnccc3[nH]2)c(=O)c2ccccc12 [exemple 5, 2-(5-Azabenzimidazol-2-yl-hydrazono)-2.3-dihydro-1.3-dioxo-1H-indene], which “hyperperméabilité vasculaire induite par le zymosan” value [1] is on record?
Its value is “inhibent”.

And the “migration leucocytaire dans la cavité pleurale” value (rat)?
Its value is “inhibent”.

And the oedème (rat)?
Its oedème is “inhibent”.

And the “augmentation des contractions des veines saphènes de lapin produites par le KCl” value (veines saphènes de lapin)?
The value was over 40%.

And the EC50 (veines saphènes de lapin)?
The EC50 was about 300 nM.

For O=C(NN=c1c(=O)c2cccnc2c1=O)Nc1ccccc1 [exemple 6, 5.7-Dioxo-6-(phenylaminocarbonylhydrazono)cyclopenta[b]pyridine], which effet antiradicalaire [2] is on record?
Its effet antiradicalaire is “effet antiradicalaire”.
